For one series, the system named is CIAP. The conditions noted are these: read-out: Km value of ATP for CIAP; molybdenum blue based assay; cited from earlier work.
Series [1] concerns N[C@@H](Cc1c[nH]cn1)C(=O)O. Briefly: purified protein, by the assay type. The conditions noted are these: pH 8.0; 25.0 °C.
For a further series, the system named is HpMTAN. The following applies: read-out: Km value for AdoHcy (HpMTAN); previously measured; cited from earlier work.

For the compound `Nc1ncnc2c1ncn2[C@@H]1O[C@H](COP(=O)(O)OP(=O)(O)OP(=O)(O)O)[C@@H](O)[C@H]1O` [ATP], the Km in the series with CIAP was 20.5 µM.
In the case of EgtD (Mycobacterium tuberculosis H37Rv), in series [1], the Michaelis-Menten constant (Km) was 330 ± 35 µM.
Regarding `Nc1ncnc2c1ncn2[C@@H]1O[C@H](CSCC[C@H](N)C(=O)O)[C@@H](O)[C@H]1O` [AdoHcy, S-adenosylhomocysteine], the Michaelis-Menten constant (Km) in the series on HpMTAN was 5 µM.

The record behind these values is paper PMC6128262 (Analytical chemistry, 2018).
